Here are results for three compounds from patent US20260327222A1, “SULFONAMIDE COMPOUND AND HARMFUL-ARTHROPOD-CONTROLLING COMPOSITION CONTAINING SAME” (SUMITOMO CHEMICAL COMPANY, LIMITED, priority 2022, published 2026).

Broadly, the mortality is the percentage killed.

Common to all, as to type: in vivo
Series [1] concerns common house mosquito (Culex pipiens pallens). In words: Test Method 12: common house mosquito larvae in diluted solution. The following applies: 3.5 ppm; final instar larvae; 1 day; 25 °C. The protocol: Each test compound is formulated according to the method mentioned in Formulation Example 1 to obtain each formulation, and water is added thereto to prepare a diluted solution containing a prescribed concentration of each test compound. […]
The test was carried out by making the prescribed concentration 3.5 ppm and using the following present compounds as a test compound according to the test method 12.

Series [2] relates to houseflies (Musca domestica). In words: Test Method 8: housefly, coated container contact. The following applies: coating amount 40 mg/m^2; adult males; 1 day; 25 °C. As for the experimental part: An acetone solution prepared by making the concentration of the test compound 800 ppm is poured into a 20 mL container, and the inner face of the container is uniformly coated with the test compound so as to make the coating amount of 40 mg/m^2, followed by drying.
Five adult male houseflies (Musca domestica) are released into the container, and the container is then covered with a lid. After the prescribed time is elapsed, the state of the houseflies are examined. The mortality of insects is calculated by the following equation.
(§1) Mortality (%)=(Number of dead insects/Number of tested insects)×100
The test was carried out by making the prescribed elapsed time 1 day and using the following present compounds as a test compound according to the test method 8.

Series [3] relates to German cockroach (Blattella germanica). Briefly: Test Method 6: German cockroach, coated container contact. The following applies: coating amount 40 mg/m^2; male adults; 3 days; 25 °C. The protocol:
An acetone solution prepared by making the concentration of the test compound 800 ppm is poured into a 50 mL container, and the inner face of the container is uniformly coated with the test compound so as to make the coating amount of 40 mg/m^2, followed by drying.
Five German cockroach (Blattella germanica) male adults are released into the container, and the container is then covered with a lid. After the prescribed time is elapsed, the state of the German cockroach are examined. The mortality of insects is calculated by the following equation.
as §1
The test was carried out by making the prescribed elapsed time 3 days and using the following present compounds as a test compound according to the test method 6.

Series [4] concerns diamondback moth (Plutella xylostella). In words: Test Method 10: diamondback moth on sprayed cabbage, 3rd instar larvae (Formulation Example 5). The following applies: spray 20 mL/seedling, 5 days, 25 °C. As for the experimental part: (§2) Each test compound is formulated according to the method mentioned in Formulation Example 5 to obtain each formulation, and water containing 0.03% by volume of Shindaine (registered trademark) is added thereto to prepare a diluted solution containing a prescribed concentration of each test compound.
Each of the diluted solutions is sprayed over cabbage (Brassicae oleracea) seedlings (on the developmental stage of the third to fourth true leaf) planted in a container in a ratio of 20 mL/seedling. Thereafter, ten 3rd instar larvae of diamondback moth (Plutella xylostella) are released into the container. After 5 days, the number of the surviving insects is counted, and the mortality of insects is calculated by the following equation.
(§3) Mortality (%)=(1−Number of surviving insects/10)×100
The test was carried out by making the prescribed concentration 200 ppm and using the following present compounds as a test compound according to the test method 10.
The test was carried out by making the prescribed concentration 50 ppm and using the following present compounds as a test compound according to the test method 10.

Series [5] relates to cotton aphids (Aphis gossypii). Briefly: Test Method 1: cotton aphid foliar spray, cucumber seedlings (Formulation Example 1). The following applies: 500 ppm; spray 10 mL/seedling; 5 days after spraying; 25 °C. The protocol: (§4) Each test compound is formulated according to the method mentioned in Formulation Example 1 to obtain each formulation, and water containing 0.03% by volume of Shindaine (registered trademark) is added thereto to prepare a diluted solution containing a prescribed concentration of each test compound.
Approximately 30 cotton aphids (Aphis gossypii) (all stages of life) are released onto cucumber (Cucumis sativus) seedlings (on the developmental stage of the second true leaf) planted in a container. After 1 day, each of the diluted solutions is sprayed over the seedlings in a ratio of 10 mL/seedling. After additional 5 days, the number of the surviving insects is examined and the control value is calculated by the following equation.
(§5) Control value (%)={1−(Cb×Tai)/(Cai×Tb)}×100 • where symbols in the equation represent the following meanings: • Cb: Number of test insects in non-treated area; • Cai: Number of surviving insects at the time of the investigation in non-treated area; • Tb: Number of test insects in treated area; and • Tai: Number of surviving insects at the time of the investigation in treated area.
(§6) Here, the “non-treated area” represents an area where the same treatment procedure as that of the treated area is carried out except for not using each test compound.
The test was carried out by making the prescribed concentration 500 ppm and using the following present compounds as a test compound according to the test method 1.

Series [6] relates to cotton aphids (Aphis gossypii). In words: Test Method 11: cotton aphid foliar spray, cucumber seedlings (Formulation Example 5). The following applies: spray 10 mL/seedling, 5 days after spraying, 25 °C. The protocol: as §2
Approximately thirty cotton aphids (Aphis gossypii) (all stages of life) are released onto cucumber (Cucumis sativus) seedlings (on the developmental stage of the second true leaf) planted in a container. After 1 day, each of the diluted solutions is sprayed over the seedlings in a ratio of 10 mL/seedling. After additional 5 days, the number of the surviving insects is examined and the control value is calculated by the following equation.
as §5, §6
The test was carried out by making the prescribed concentration 200 ppm and using the following present compounds as a test compound according to the test method 11.
The test was carried out by making the prescribed concentration 50 ppm and using the following present compounds as a test compound according to the test method 11.

Series [7] has as its system diamondback moth (Plutella xylostella). In words: Test Example 4 (test method 4): diamondback moth on sprayed cabbage, 2nd instar larvae. The settings on record: 500 ppm, spray 20 mL/seedling, 5 days, 25 °C. The protocol:
as §4
Each of the diluted solutions is sprayed over cabbage (Brassicae oleracea) seedlings (on the developmental stage of the second to third true leaf) planted in a container in a ratio of 20 mL/seedling. Thereafter, the stem and leaf of the seedlings are cut out, and placed in a container lined with a filter paper. Five 2nd instar larvae of diamondback moth (Plutella xylostella) are released into the container. After 5 days, the number of the surviving insects is counted, and the mortality of insects is calculated by the following equation.
(§7) Mortality (%)=(1−Number of surviving insects/5)×100
The test was carried out by making the prescribed concentration 500 ppm and using the following present compounds as a test compound according to the test method 4.

Series [8] deals with western corn rootworm (Diabrotica virgifera virgifera). Briefly: Test Method 5: western corn rootworm on immersed corn seedlings. The following applies: 200 ppm; seedlings immersed 30 seconds; 2nd instar larvae; 5 days; 25 °C. The protocol: Each test compound is dissolved in 50 μL of a mixed solution of polyoxyethylene sorbitan monococoate and acetone (at a volume ratio of 5:95) per 1 mg of the test compound. Water containing 0.03% by volume of Shindaine (registered trademark) is added thereto to prepare a diluted solution containing a prescribed concentration of each test compound.
Young seedlings of corns (Zea mays) are immersed in each of the diluted solutions for 30 seconds. Thereafter, two seedlings are placed in a petri dish (diameter: 90 mm), and ten 2nd instar larvae of western corn rootworm (Diabrotica virgifera virgifera) are released into the dish. After 5 days, the number of the dead insects is counted, and the mortality of insects is calculated by the following equation.
Mortality (%)=(1−Number of dead insects/10)×100
The test was carried out by making the prescribed concentration 200 ppm and using the following present compounds as a test compound according to the test method 5.

For series [9], the system named is common cutworm (Spodoptera litura). In words: Test Method 3: common cutworm on sprayed cabbage, 2nd instar larvae. The following applies: 500 ppm, spray 20 mL/seedling, 5 days, 25 °C. The protocol: as §4
Each of the diluted solutions is sprayed over cabbage (Brassicae oleracea) seedlings (on the developmental stage of the second to third true leaf) planted in a container in a ratio of 20 mL/seedling. Thereafter, the stem and leaf of the seedlings are cut out, and placed in a container lined with a filter paper. Five 2nd instar larvae of common cutworm (Spodoptera litura) are released into the container. After 5 days, the number of the surviving insects is counted, and the mortality of insects is calculated by the following equation.
as §7
The test was carried out by making the prescribed concentration 500 ppm and using the following present compounds as a test compound according to the test method 3.

The test system is the same in series [10]. In words: Test Method 9: common cutworm on sprayed cabbage, 3rd instar larvae (Formulation Example 5). The settings on record: 200 ppm, spray 20 mL/seedling, 6 days, 25 °C. The protocol:
as §2
Each of the diluted solutions is sprayed over cabbage (Brassicae oleracea) seedlings (on the developmental stage of the third to fourth true leaf) planted in a container in a ratio of 20 mL/seedling. Thereafter, ten 3rd instar larvae of common cutworm (Spodoptera litura) are released into the container. After 6 days, the number of the surviving insects is counted and the mortality of insects is calculated by the following equation.
as §3
The test was carried out by making the prescribed concentration 200 ppm and using the following present compounds as a test compound according to the test method 9.
The test is carried out by making the prescribed concentration 50 ppm and using the following present compounds as a test compound according to the test method 9. As a result of the test, it is possible to confirm an insecticidal effect on common cutworm (Spodoptera litura).

Take `CNS(=O)(=O)c1c(-c2cnc(OCC(F)(F)C(F)(F)F)cn2)nc2ccc(Br)cn12` [compound 1]: the mortality in [1] is given as no less than 90%; in series [4] (50 ppm) it was no less than 80%; in [4] (200 ppm) it was no less than 80%; in series [7], no less than 80%; in series [8] it was no less than 80%; in series [9], no less than 80%. For the same compound, the mortality in series [10] was no less than 80%. For the same compound, the mortality of insects in [2] and in series [3] was no less than 80% in each case. Besides, the control value in series [5], in series [6] (50 ppm) and in [6] (200 ppm) was no less than 90% in each case.

With `CCNS(=O)(=O)c1c(-c2cnc(OCC(F)(F)C(F)(F)F)cn2)nc2ccc(Br)cn12` [compound 2], the mortality is no less than 90% in series [1]; no less than 80% in [4] (50 ppm); no less than 80% in series [4] (200 ppm); no less than 80% in series [7]; no less than 80% in series [8]; no less than 80% in series [9]. For the same compound, the mortality in [10] is no less than 80%. Besides, the mortality of insects in series [2] and in series [3] was no less than 80% throughout. Moreover, the control value in [5], in series [6] (50 ppm) and in [6] (200 ppm) was no less than 90% throughout.

With `CN(C)S(=O)(=O)c1c(-c2ccc(OCC(F)(F)C(F)F)nn2)nc2ccc(I)cn12` [compound 4], the mortality in series [4] (50 ppm), in series [4] (200 ppm), in series [7], in series [9] and in [10] was no less than 80% each time. In [5], this compound displayed a control value of no less than 90%.
